Measurements: US20160177395A1, “BIOMARKERS FOR THE PREDICTION OF RENAL INJURY” (priority 2007, published 2016)
Where “and” joins values, the source holds several entries; their conditions need not be identical. Identical values can stand only once. Entries after “also recorded” stand apart in the source; their conditions may differ.

Columns and labels:
[1] = system: kidney tissues of treated or untreated rats; assay: Real-time qRT-PCR of signature amplicons, validation stage, labeled and un-labeled samples (Table 23); conditions: for H31883_DB71_seg13 normalized qRT-PCR result / MUSCYCG1R_DB81_seg19-20 normalized qRT-PCR result / W41270_DB81_seg11 normalized qRT-PCR result: un-labeled sample, one line per animal; for AI045075_DB71_seg6 normalized qRT-PCR expression (Interferon stimulated exonuclease 20 (ISG20) transcript) / H31883_DB71_seg13 normalized qRT-PCR expression (Cyclin-G1 (CCNG1) transcript) / MUSCYCG1R_DB81_seg19-20 normalized qRT-PCR expression / W41270_DB81_seg11 normalized qRT-PCR expression (tumor necrosis factor receptor superfamily, member 12a transcript) / W64472_DB81_seg2 normalized qRT-PCR expression (Interferon stimulated exonuclease 20 (ISG20) transcript) / W83813_DB81_seg27 normalized qRT-PCR expression: un-labeled samples, kidney of individual male/female rats
Method in brief: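 Rat kidney RNA, labeled and un-labeled samples, run over seven plates; two amplicons per signature gene (wild-type and splice variant). Values normalized to housekeeping genes, then per plate and amplicon by geometric mean of ratios against a shuffled normalization plate (outliers removed), then scaled.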

rat kidney samples = assay: Random-Forest classifiers applied to un-labeled samples of T1, T2, T3 and control (Table 30); conditions: for Average 'Toxic' (%): average of the two classifiers
Experimental: To validate the optimal signature for classification of renal toxicity of a compound after five days of application a test of the signatory polynucleotide/gene expression in rat kidney samples consisting of tissues from rats exposed to three drug compounds and a single control group was carried out (Teva Pharmaceutical Industries, IL).
The two optimal classifiers (signatures described in Tables 26 and 27) were applied to the qRT-PCR reads of the un-labeled samples and their calls was used to assign a level of toxicity to each group and, eventually, each compound.
The classifiers described in Tables 26 and 27, were used for testing the un-labeled samples. Both classifiers were applied to the measurements of each sample, used the 30% bound from above, and the number of samples pass that bound in each group were summarized.

kidney = assay: Renal histopathology of rats treated with T1, T2, T3; format: in vivo, rat
Experimental: Each group consisted of 6 male and 6 female rats. The additional groups consisted of 6 males and 6 female rats treated with control compound for a single day and for five days, as described in Table 24.
T2 “no observed effect level” (NOEL, i.e., the maximal dose at which no toxic effect is visible) is 15 mg/kg.
At autopsy, both kidneys of each animal were removed and each kidney was cross sectioned. Half of each kidney was sent to RNA extraction and analysis.

[2] = Ds1, Day1, oral gavage, female rat kidney
[3] = Ds1, Day1, oral gavage, male rat kidney
[4] = Ds1, Day5, oral gavage, female rat kidney
[5] = Ds1, Day5, oral gavage, male rat kidney
[6] = Ds2, Day1, oral gavage, female rat kidney
[7] = Ds2, Day1, oral gavage, male rat kidney
[8] = Ds2, Day5, oral gavage, female rat kidney
[9] = Ds2, Day5, oral gavage, male rat kidney

SMILES: CN(C)c1cccc2c1CCC2Nc1cc(=O)[nH]c(=O)[nH]1.Cl (stereo not shown) [T2]
- H31883_DB71_seg13 normalized qRT-PCR result [1, 2]: 0.183 and 0.213 and 0.29 and 0.387
- MUSCYCG1R_DB81_seg19-20 normalized qRT-PCR result [1, 2]: 0.54 and 0.419 and 0.836 and 0.49
- W41270_DB81_seg11 normalized qRT-PCR result [1, 2]: 0.492 and 0.468 and 1.072 and 0.969
- H31883_DB71_seg13 normalized qRT-PCR result [1, 3]: 0.955 and 0.798 and 0.931 and 1.182
- MUSCYCG1R_DB81_seg19-20 normalized qRT-PCR result [1, 3]: 0.98 and 0.709 and 1.059 and 1.253
- W41270_DB81_seg11 normalized qRT-PCR result [1, 3]: 0.801 and 0.791 and 1.076 and 1.477
- H31883_DB71_seg13 normalized qRT-PCR result [1, 4]: 0.865 and 0.922 and 0.961 and 0.824 and 1.303
- MUSCYCG1R_DB81_seg19-20 normalized qRT-PCR result [1, 4]: 0.771 and 1.02 and 1.923 and 1.232 and 0.94
- W41270_DB81_seg11 normalized qRT-PCR result [1, 4]: 0.464 and 0.532 and 0.616 and 0.572 and 0.773
- H31883_DB71_seg13 normalized qRT-PCR result [1, 5]: 0.11 and 0.209 and 0.27 and 0.299
- MUSCYCG1R_DB81_seg19-20 normalized qRT-PCR result [1, 5]: 1.566 and 1.449 and 1.516 and 1.237
- W41270_DB81_seg11 normalized qRT-PCR result [1, 5]: 1.445 and 1.42 and 1.258 and 1.447
- H31883_DB71_seg13 normalized qRT-PCR result [1, 6]: 0.289 and 0.365 and 0.32 and 0.444 and 0.254
- MUSCYCG1R_DB81_seg19-20 normalized qRT-PCR result [1, 6]: 2.008 and 0.857 and 3.044 and 2.152 and 0.71
- W41270_DB81_seg11 normalized qRT-PCR result [1, 6]: 1.104 and 0.741 and 1.73 and 1.211 and 0.666
- H31883_DB71_seg13 normalized qRT-PCR result [1, 7]: 0.773 and 0.595 and 0.741 and 0.777 and 0.725 and 0.614
- MUSCYCG1R_DB81_seg19-20 normalized qRT-PCR result [1, 7]: 1.006 and 0.729 and 0.541 and 1.015 and 0.588 and 0.471
- W41270_DB81_seg11 normalized qRT-PCR result [1, 7]: 1.462 and 0.692 and 0.656 and 1.23 and 0.866 and 0.837
- H31883_DB71_seg13 normalized qRT-PCR result [1, 8]: 0.269 and 0.354
- MUSCYCG1R_DB81_seg19-20 normalized qRT-PCR result [1, 8]: 0.799 and 3.003
- W41270_DB81_seg11 normalized qRT-PCR result [1, 8]: 0.554 and 1.029
- H31883_DB71_seg13 normalized qRT-PCR result [1, 9]: 0.615 and 1.022 and 0.962 and 0.626
- MUSCYCG1R_DB81_seg19-20 normalized qRT-PCR result [1, 9]: 1.338 and 0.831 and 0.83 and 0.878
- W41270_DB81_seg11 normalized qRT-PCR result [1, 9]: 0.899 and 1.446 and 0.623 and 1.049
- AI045075_DB71_seg6 normalized qRT-PCR expression (Interferon stimulated exonuclease 20 (ISG20) transcript) ([1]; dose Ds1, Day1, oral gavage): 1.308 and 0.744 and 1.159
- H31883_DB71_seg13 normalized qRT-PCR expression (Cyclin-G1 (CCNG1) transcript) ([1]; dose Ds1, Day1, oral gavage): 0.88 and 0.67 and 0.613 and 0.695 and 0.464 and 0.951 and 0.536 and 0.646 and 0.629 and 0.7 (2×)
- MUSCYCG1R_DB81_seg19-20 normalized qRT-PCR expression ([1]; dose Ds1, Day1, oral gavage): 0.938 and 0.555 and 0.115 and 0.859 and 0.124 and 0.888 and 0.267 and 0.157 and 0.47 and 0.126 and 0.51
- W41270_DB81_seg11 normalized qRT-PCR expression (tumor necrosis factor receptor superfamily, member 12a transcript) ([1]; dose Ds1, Day1, oral gavage): 0.481 and 0.662 and 0.473 and 0.76 and 0.474 and 0.876 and 0.959 and 0.518 and 0.823 and 3.38 and 0.623
- W64472_DB81_seg2 normalized qRT-PCR expression (Interferon stimulated exonuclease 20 (ISG20) transcript) ([1]; dose Ds1, Day1, oral gavage): 1.863 and 0.632 and 1.305
- W83813_DB81_seg27 normalized qRT-PCR expression ([1]; dose Ds1, Day1, oral gavage): 0.305 and 0.666 and 0.84
- AI045075_DB71_seg6 normalized qRT-PCR expression (Interferon stimulated exonuclease 20 (ISG20) transcript) ([1]; dose Ds1, Day5, oral gavage): 1.016 and 1.11
- H31883_DB71_seg13 normalized qRT-PCR expression (Cyclin-G1 (CCNG1) transcript) ([1]; dose Ds1, Day5, oral gavage): 1.884 and 1.539 and 1.163 and 1.329 and 1.66 and 1.079 and 0.936 and 0.978 and 1.439 and 1.149 and 2.147
- MUSCYCG1R_DB81_seg19-20 normalized qRT-PCR expression ([1]; dose Ds1, Day5, oral gavage): 0.107 and 0.113 and 1.399 and 1.006 and 0.148 and 0.127 and 0.736 and 1.386 and 1.293 and 0.172 and 0.179
- W41270_DB81_seg11 normalized qRT-PCR expression (tumor necrosis factor receptor superfamily, member 12a transcript) ([1]; dose Ds1, Day5, oral gavage): 0.233 and 0.493 and 0.626 and 1.149 and 0.321 and 0.477 and 0.83 and 1.524 and 1.111 and 0.397 and 0.337
- W64472_DB81_seg2 normalized qRT-PCR expression (Interferon stimulated exonuclease 20 (ISG20) transcript) ([1]; dose Ds1, Day5, oral gavage): 0.929 and 0.996
- W83813_DB81_seg27 normalized qRT-PCR expression ([1]; dose Ds1, Day5, oral gavage): 0.248 and 0.203
- AI045075_DB71_seg6 normalized qRT-PCR expression (Interferon stimulated exonuclease 20 (ISG20) transcript) ([1]; dose Ds2, Day1, oral gavage): 1.43
- H31883_DB71_seg13 normalized qRT-PCR expression (Cyclin-G1 (CCNG1) transcript) ([1]; dose Ds2, Day1, oral gavage): 0.832 and 0.773 and 0.635 and 0.722 and 0.618 and 0.999 and 0.602 and 0.522 and 1.006 and 1.079 and 0.84 and 0.762
- MUSCYCG1R_DB81_seg19-20 normalized qRT-PCR expression ([1]; dose Ds2, Day1, oral gavage): 0.211 and 0.531 and 0.505 and 0.585 and 0.475 and 0.661 and 0.197 and 0.458 and 0.167 and 0.192 and 0.14 and 0.111
- W41270_DB81_seg11 normalized qRT-PCR expression (tumor necrosis factor receptor superfamily, member 12a transcript) ([1]; dose Ds2, Day1, oral gavage): 1.747 and 1.016 and 0.424 and 0.589 and 0.545 and 0.528 and 0.384 and 0.577 and 1.729 and 1.125 and 0.594 and 0.92
- W64472_DB81_seg2 normalized qRT-PCR expression (Interferon stimulated exonuclease 20 (ISG20) transcript) ([1]; dose Ds2, Day1, oral gavage): 0.804
- W83813_DB81_seg27 normalized qRT-PCR expression ([1]; dose Ds2, Day1, oral gavage): 0.201
- AI045075_DB71_seg6 normalized qRT-PCR expression (Interferon stimulated exonuclease 20 (ISG20) transcript) ([1]; dose Ds2, Day5, oral gavage): 0.609 and 1.842 and 0.637
- H31883_DB71_seg13 normalized qRT-PCR expression (Cyclin-G1 (CCNG1) transcript) ([1]; dose Ds2, Day5, oral gavage): 1.386 and 0.676 and 1.01 and 1.128 and 1.161 and 1.146 and 1.057 and 0.942 and 1.256
- MUSCYCG1R_DB81_seg19-20 normalized qRT-PCR expression ([1]; dose Ds2, Day5, oral gavage): 0.345 and 0.169 and 0.513 and 0.148 and 0.185 and 0.997 and 0.746 and 0.686 and 0.655
- W41270_DB81_seg11 normalized qRT-PCR expression (tumor necrosis factor receptor superfamily, member 12a transcript) ([1]; dose Ds2, Day5, oral gavage): 1.186 and 0.308 and 0.497 and 0.711 and 1.237 and 0.857 and 0.788 and 0.457 and 0.668
- W64472_DB81_seg2 normalized qRT-PCR expression (Interferon stimulated exonuclease 20 (ISG20) transcript) ([1]; dose Ds2, Day5, oral gavage): 0.731 and 1.178 and 0.485
- W83813_DB81_seg27 normalized qRT-PCR expression ([1]; dose Ds2, Day5, oral gavage): 0.601 and 0.555 and 0.354
- Average 'Toxic' (%) (rat kidney samples; Ds1 Day1 Female): 20%
- Average 'Toxic' (%) (rat kidney samples; Ds1 Day1 Male): 25%
- Average 'Toxic' (%) (rat kidney samples; Ds1 Day5 Female): 30%
- Average 'Toxic' (%) (rat kidney samples; Ds1 Day5 Male): 83%
- Average 'Toxic' (%) (rat kidney samples; Ds2 Day1 Female): 58.5%
- Average 'Toxic' (%) (rat kidney samples; Ds2 Day1 Male): 0%
- Average 'Toxic' (%) (rat kidney samples; Ds2 Day5 Female): 50%
- Average 'Toxic' (%) (rat kidney samples; Ds2 Day5 Male): 30%
- Toxicity conclusion from classifier calls (rat kidney samples; signatures of Tables 26 and 27, 30% bound): nephrotoxic agents
- Kidney histopathology findings (kidney; 50 mg/kg, after 7 days): direct cortical tubular toxicity; also recorded: multifocal, consisting of tubular basophilia, indicating regeneration following necrosis; also recorded: basophilic tubules in the cortex, indicating post-necrotic regeneration
- Time after which visible pathological damage was seen (kidney; rats): 7 days
- no observed effect level (NOEL) (kidney; rats): 15 mg/kg
- Renal damage (kidney; rats, dose and duration as in the value): renal damage after 7 days of treatment at the 50 mg/kg dose
